How the values were obtained:
[1] = system: E. coli; experiment: Bacterial killing by nasal lavage fluid, luminescence assay; assay type: cell-based; conditions: increasing xylitol concentration (serial dilutions of 300 mM), 4 hours at 30° C.
Experimental: FIG. 4. Effect of modifying ionic strength and xylitol concentration of killing of E. coli by nasal lavage liquid. Nasal lavage liquid was diluted with increasing concentrations of NaCl (bottom X-axis) or xylitol (top X-axis). SEM are smaller than the symbol.
Nasal lavage fluid was collected from normal volunteers. A flexible catheter (18-gauge; Jelco, Tampa, Fla.) was inserted into each nostril and the area flushed four times with 4 ml of sterile water. Cells were removed by centrifugation and the fluid was filtered with a sequential 0.8/0.2 μm Supor Acrodisc PF (GelamnSciences, Ann Arbor, Mich.). To study the effect of xylitol on bacterial killing by endogenous antimicrobial factors, a luminescence assay was used in which E. coli express the genes from Photorhabdus luminescens (Travis, S. M., B. A. D. Conway, J. Zabner, J. J. Smith, N. N. Anderson, P. K. Singh, E. P. Greenberg, and M. J. Welsh. 1999. Activity of Abundant Antimicrobials of the Human Airway. Am. J. Respir. Cell. Mol. Biol. 20:872-879). As previously described, this assay reports bacterial viability. Briefly, bacteria were grown to exponential phase at 30° C., centrifuged, and resuspended in 20 mM potassium phosphate with 2% Lauria-Bertani medium. […] After incubation at 30° C. for 4 hours, luminescence was measured with a luminometer (MLX Luminometer; Dynex Technologies Inc.; Chantilly, Va.). […]

[2] = system: CF epithelia; experiment: ASL Cl- concentration and volume (isotope method); assay type: cell-based, human
Experimental: FIGS. 3(A-B). The effect of apical xylitol on non-CF and CF ASL Cl^− concentration and volume. Five μl of isosmotic xylitol or saline solution were applied to the apical surface. Twenty-four hours later, ASL Cl^− concentration (A) and volume (B) were determined. Asterisk indicates a difference between the saline and the xylitol solutions, p<0.05. N=15 to 18 from 3 CF and 3 non-CF specimens.
Airway epithelial cells were isolated from tracheal and bronchial tissue. […] All epithelia were evaluated with scanning electron microscopy for the development of a ciliated apical surface.
The ASL Cl^− concentration was measured as previously described (Zabner, J., J. J. Smith, P. H. Karp, J. H. Widdicombe, and M. J. Welsh. 1998. Loss of CFTR chloride channels alters salt absorption by cystic fibrosis airway epithelia in vitro. Mol. Cell. 2:397-403). […] The ratio of ^36Cl to ^3H2O was determined by liquid scintillation. […] From these measurements, it was determined the ^3H2O activity per μl of water and the cpm of ^36Cl per mole of Cl^− in the basolateral medium. ASL volume was calculated from the ASL ^3H2O collected divided by the ratio of ^3H2O activity per μl of basolateral medium. Chloride content was calculated from the ASL ^36Cl collected divided by the ratio of ^36Cl per mole of Cl^− in the basolateral medium ASL Cl^− concentration was calculated from the Cl^− content divided by the volume of ASL. […]

OC[C@@H](O)[C@H](O)[C@@H](O)CO [xylitol]
killing of E. coli by nasal lavage fluid [1]: not affected
estimated ASL volume ([2]; 24 hours after 5 μl apical): increased
ASL Cl- concentration ([2]; 24 hours after 5 μl isosmotic xylitol solution apical): fell to values observed in non-CF epithelia
